According to patent US9365491B2, “Inhibitors of cognitive decline” (COGNITION THERAPEUTICS, INC., priority 2009, dated 2016):
Entries after “also recorded” stand apart in the source; their conditions may differ.

How the values were obtained:
[1] = Pharmacokinetic studies (Example CC), plasma; type: in vivo; conditions: rat, iv, rats, injected intravenously at 1 mg/Kg
Method: PK studies are performed at CEREP Inc of Redmond Wash., according to their standard protocols: The plasma samples were processed using acetonitrile precipitation and analyzed by HPLC-MS or HPLC-MS/MS. Peak areas were recorded, and the concentrations of the test compound in the unknown plasma samples were determined using the respective calibration curve. The reportable linear range of the assay was determined, along with the lower limit of quantitation (LLQ).
Pharmacokinetic studies were performed according to the following protocols: The plasma samples were processed using acetonitrile precipitation and analyzed by HPLC-MS or HPLC-MS/MS. Peak areas were recorded, and the concentrations of the test compound in the unknown plasma samples were determined using the respective calibration curve. The reportable linear range of the assay was determined, along with the lower limit of quantitation (LLQ).

[2] = test system: Abeta oligomer-induced acceleration of exocytosis in primary neurons; experiment: Exocytosis assay/MTT assay (Example AA); type: cell-based, rat; conditions: Primary neuron
Method: Primary neurons from E18 Sprague-Dawley rat embryos are plated at optimized concentrations in 384 well plates in NB media (Invitrogen). Neurons are maintained in cultures for 3 weeks, with twice weekly feeding of NB media with N2 supplement (Invitrogen). A test compound is added to cells, followed by addition of Vehicle or Abeta oligomer preparations (1.5 μM), and incubated for 1 to 24 hr at 37° C. in 5% CO2. MTT reagent (3-(4,5-dimethylthizaol-2yl)-2,5diphenyl tetrazolium bromide) (Roche Molecular Biochemicals) is reconstituted in phosphate buffered saline to 5 mg/mL. 10 μL of MTT labeling reagent is added to each well and incubated at 37° C. for 1 h, then imaged.
Each assay plate is formatted so that compounds are tested with and without Abeta on each plate. […] Statistical performance of the screening plate layout are assessed, screening will be initiated if the current performance is maintained. […]
Optimal cell density is determined based on cellular response to Abeta oligomers using the exocytosis assay as a readout, and immunohistochemical analysis of the relative proportion of glia to neurons in the cultures. Cultures are monitored on a weekly basis with immunohistochemistry and image processing-based quantification to monitor the percentage of the cultures that are neurons vs. glia (Glial cells). […]

Abeta 1-42 Oligomers = molecular target: T1, Abeta 1-42 Oligomers (Homo sapiens, UniProt P05067); experiment: Binding assay (Example BB): Abeta oligomer binding to neurons, image processing; conditions: imaging processing algorithm
T1 construct: Human amyloid peptide 1-42 is obtained from California Peptide; purchased California Peptide
T1 sequence (P05067 672-713): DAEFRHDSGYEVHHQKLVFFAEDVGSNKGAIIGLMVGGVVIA
Method: Each test compound was added to a plate followed by an addition of one or more of Abeta 1-42 Oligomers. The plates were fixed with 3.7% paraformaldehyde in phosphate buffered saline (PBS) for 15 min. The plate was then washed 3× with PBS for 5 min each. The plates were blocked at room temperature for 1 hour in 5% goat serum and 0.5% Triton X-100 (CAS number: 9002-93-1) in PBS. Primary antibodies (anti-MAP 2 polyclonal, Millipore #AB5622 and anti-Beta Amyloid 6E10 monoclonal, Convance #SIG-39300) were diluted 1:1000 in 5% goat serum with PBS. Primary antibodies were incubated either overnight at 4° C. or 1 hour at RT. The plate was then washed 3× with PBS for 5 min each. Secondary antibodies (Alex Flor 488 polyclonal, Invitrogen #A11008 and Alexa Flor 647 monoclonal, Invitrogen #A21235) were diluted 1:1000 in 5% goat serum with PBS. Secondary antibodies were incubated at RT for 1 hr. The plates were washed once with PBS. […]
Human amyloid peptide 1-42 is obtained from California Peptide, with lot-choice contingent upon quality control analysis. […] Toxicity is monitored in each image-based assay via quantification of nuclear morphology visualized with the DNA binding dye DAPI (Invitrogen). […]
Images were captured and analyzed with the Cellomics VTI automated microscope platform, using the Neuronal Profiling algorithm. […]

[3] = test system: Abeta assemblies isolated from AD patients or normal individuals; experiment: Membrane trafficking assay with patient-derived Abeta assemblies (Example FF); type: cell-based; conditions: FIG. 4
Method: Abeta assemblies were isolated from patients with Alzheimer's Disease (AD) or from normal patients. The Abeta assemblies were tested for their ability to modulate membrane trafficking. […] (FIG. 4). […] Compound Example 2 has no effect on Abeta assemblies isolated from Age-matched normal individuals. (FIG. 4). […] (FIG. 4).

[4] = test system: Abeta oligomer effects on membrane trafficking in mature primary neurons; experiment: Primary neuron-based functional screening assay (membrane trafficking/exocytosis, Example DD); type: cell-based, rat; conditions: for activity in blocking the effects of Abeta oligomers on membrane trafficking: compound added to neurons before oligomers
From the text: Primary rat neurons grown for at least 3 weeks in vitro were chosen as the basis for this screening assay. […] More complex systems such as acute or organotypic brain slices are very useful but not amenable to high throughput screening. […] For this reason, primary neuronal cultures were chosen because of their ability to be used in high throughput screens and fidelity to what occurs in vivo.
(Scale bar=20 microns in FIG. 1A). […] (FIG. 1B).
The MTT assay can be used as a measure of toxicity in cultures. Yellow tetrazolium salts were endocytosed by cells and reduced to insoluble purple formazan in the endosomal pathway. The level of purple formazan was a reflection of the number of actively metabolizing cells in culture, and reduction in the amount of formazan was taken as a measure of cell death or metabolic toxicity in culture.
The exocytosis assay was adapted for use with mature primary neuronal cultures grown for 3 weeks in vitro.
Compounds were added to neurons first, then oligomers were added.
Data were the average of 3 experiments. Scale bar=20 micron in FIG. 2D.

[5] = test system: Abeta oligomer-mediated memory deficits; experiment: Fear conditioning assay (Example EE); type: in vivo, mice
Method: Compound Example 2 was tested in an animal model of a memory-dependent behavioral task known as fear conditioning. The study protocol was designed based on published protocols (See e.g. Puzzo D, Privitera L, Leznik E, Fà M, Staniszewski A, Palmeri A, Arancio O. Picomolar amyloid-beta positively modulates synaptic plasticity and memory in hippocampus. J Neurosci. 2008 Dec. 31; 28(53)14537-45.). The formation of contextual memories is dependent upon the integrity of medial temporal lobe structures such as the hippocampus. In this assay mice were trained to remember that a particular salient context (conditioned stimulus; CS) is associated with an aversive event, in this case a mild foot shock (the unconditioned stimulus, US). Animals that show good learning will express an increase in freezing behavior when placed back into the same context. This freezing is absent in a novel context. Increased freezing in the context indicates strong hippocampal-dependent memory formation in animals. Memory tested in Fear Conditioning is sensitive to elevations of soluble Aβ. […] The fear condition model for memory was performed as described herein.

## COc1cc(CCC(C)NCc2ccc(Cl)cc2)ccc1O (stereo not drawn) [Compound Example 1, 4-(3-(4-chlorobenzylamino)butyl)-2-methoxyphenol]
[1]
  half-life: 46 min
[2]; MTT assay, primary rat neurons, Abeta oligomers 1.5 μM, read-out: EC50 for block of Abeta oligomer-induced acceleration of exocytosis
  EC50: 10 µM
Abeta 1-42 Oligomers
  partial block of binding of the Abeta oligomer ligand to neurons: 24%

## COc1cc(CCC(C)NCc2ccc(C(F)(F)F)cc2)ccc1O (stereo not drawn) [Compound Example 2, 4-(3-(4-(trifluoromethyl)benzylamino)butyl)-2-methoxyphenol]
[3]; IMW (10-100 KDa) assemblies from AD patients
  effect on trafficking effects of AD-brain derived Abeta assemblies: significantly blocked
[3]; IMW assemblies from normal individuals
  effect on Abeta assemblies isolated from Age-matched normal individuals: no effect
[4]; Rattus norvegicus, Primary neuron, 504 h, FIG. 2B, primary neurons 3 weeks in vitro, read-out: EC50 for inhibition of oligomer effects on membrane trafficking
  EC50: 7 µM
[4]
  activity in blocking the effects of Abeta oligomers on membrane trafficking: inhibits oligomer effects on membrane trafficking; also recorded: effective
[5]; 2 pmol dose, given prior to Abeta (200 nM), contextual fear conditioning, FIG. 3 bar d
  effect on Abeta oligomer-mediated memory deficits: completely blocked
[5]; administered prior to Abeta oligomer administration
  block of oligomer effects on memory across doses: blocked oligomer effects on memory in a dose-dependent manner
[5]; any dose
  adverse behavioral changes: No adverse behavioral changes were observed
[5]; no Abeta, data not shown
  effect of compound alone on memory: No effect

## C[C@]12N[C@H](Cc3ccccc31)c1ccccc12 [MK-801, reference compound]
[4]
  activity in blocking the effects of Abeta oligomers on membrane trafficking: none were active

## CC12CC3CC(C)(C1)CC(N)(C3)C2 [Memantine, memantine, reference compound]
[2]; Rattus norvegicus, 28 μM memantine, control on each plate, read-out: inhibition of oligomer effects
  inhibition at 28 µM: 50%

## C[N+](C)(C)CCCCCC[N+](C)(C)C [hexamethonium bromide, reference compound]
[4]
  activity in blocking the effects of Abeta oligomers on membrane trafficking: none were active

## O[C@H]1[C@H](O)[C@@H](O)[C@H](O)[C@@H](O)[C@@H]1O [scyllo-inositol, reference compound]
[4]
  activity in blocking the effects of Abeta oligomers on membrane trafficking: none were active
